Assay results reported in patent US20100120879A1, “INSECTICIDES AS SAFENER FOR FUNGICIDES WITH PHYTOTOXIC ACTION” (priority 2007, published 2010).

Key:
[1] = system: wheat; conditions: wheat treated with the azole fungicide; F. Montfort et al., Pesticide Science 46(4), 1996; cited from earlier work
[2] = system: soybeans, variety "Conquista"; assay: Vitality of the plants 14 days after sowing (visual score); conditions: visual scale 0 to 10, untreated = 5, each point = 20% improvement or deterioration, triticonazole 50 g, fipronil 50 g, gibberellic acid 1 g a.s. per 100 kg seeds
[3] = system: Phakopsora pachyrhizi; assay: Fungicidal activity against soybean rust after seed treatment; assay type: in vivo; conditions: triticonazole 50 g, fipronil 50 g, gibberellic acid 1 g a.s. per 100 kg seeds

Compound: CC1(C)CCC(=Cc2ccc(Cl)cc2)C1(O)Cn1cncn1 (centres unmarked) [Triticonazole, triticonazole]
- Longitudinal growth of treated wheat [1]: greatly reduced longitudinal growth
- Vitality [2]: 2
- Infection (percentage of diseased leaf area) ([3]; leaves in the middle part of the plant, 35 days after sowing, untreated 10.5): 9%
- Infection (percentage of diseased leaf area) ([3]; lower part of the plant, 21 days after sowing, untreated 8.5): 0%
- Infection (percentage of diseased leaf area) ([3]; lower part of the plant, 35 days after sowing, untreated 70): 47%
